ChEMBL document CHEMBL4190180 (Medchemcomm, 2016)

What was measured:
[1] = Antiproliferative activity against mouse L5178 cells harboring human ABCB1 after 72 hrs by MTT assay; format: functional, cell-based; conditions: L5178, 72 h
[2] = tested on: SH-SY5Y; assay: Antiproliferative activity against human SH-SY5Y cells after 48 hrs by MTT assay
[3] = Antiproliferative activity against mouse L5178 cells after 72 hrs by MTT assay; format: functional, cell-based; conditions: L5178, 72 h
[4] = Potentiation of doxorubicin-induced cytotoxicity in mouse L5178 cells assessed as combination index at ED50 in presence of 326:1 ratio of doxorubicin to test compound after 48 hrs by MTT assay; format: functional
[5] = biological target: T1, ATP-dependent translocase ABCB1 (Homo sapiens, UniProt P08183); assay: Inhibition of human ABCB1 expressed in mouse L5178 cells assessed as rhodamine-123 accumulation by measuring fluorescence activity ratio at 2 uM pretreated for 10 mins followed by rhodamine-123 addition measured after 20 mins by flow cytometric analysis; format: cell-based
[6] = biological target: T1, ATP-dependent translocase ABCB1; assay: Inhibition of human ABCB1 expressed in mouse L5178 cells assessed as rhodamine-123 accumulation by measuring fluorescence activity ratio at 20 uM pretreated for 10 mins followed by rhodamine-123 addition measured after 20 mins by flow cytometric analysis; format: cell-based
[7] = biological target: T1, ATP-dependent translocase ABCB1; assay: Inhibition of human ABCB1 expressed in mouse L5178 cells assessed as potentiation of doxorubicin-induced cytotoxicity by measuring combination index at ED90 in presence of 20.4:1 ratio of doxorubicin to test compound after 48 hrs by MTT assay; format: cell-based
[8] = biological target: T1, ATP-dependent translocase ABCB1; assay: Inhibition of human ABCB1 expressed in mouse L5178 cells assessed as potentiation of doxorubicin-induced cytotoxicity by measuring combination index at ED50 in presence of 20.4:1 ratio of doxorubicin to test compound after 48 hrs by MTT assay; format: cell-based
[9] = Potentiation of doxorubicin-induced cytotoxicity in mouse L5178 cells assessed as combination index at ED75 in presence of 326:1 ratio of doxorubicin to test compound after 48 hrs by MTT assay; format: functional
[10] = tested on: MCF7; assay: Antiproliferative activity against human MCF7 cells after 72 hrs by MTT assay; format: functional, cell-based; conditions: MCF7, 72 h
[11] = tested on: MDA-MB-361; assay: Antiproliferative activity against human MDA-MB-361 cells after 72 hrs by MTT assay; format: functional, cell-based; conditions: MDA-MB-361, 72 h
[12] = Potentiation of doxorubicin-induced cytotoxicity in mouse L5178 cells assessed as combination index at ED50 in presence of 81.5:1 ratio of doxorubicin to test compound after 48 hrs by MTT assay; format: functional
[13] = tested on: MDA-MB-231; assay: Antiproliferative activity against human MDA-MB-231 cells after 72 hrs by MTT assay; format: functional, cell-based; conditions: MDA-MB-231, 72 h
[14] = Potentiation of doxorubicin-induced cytotoxicity in mouse L5178 cells assessed as combination index at ED90 in presence of 326:1 ratio of doxorubicin to test compound after 48 hrs by MTT assay; format: functional
[15] = biological target: T1, ATP-dependent translocase ABCB1; assay: Inhibition of human ABCB1 expressed in mouse L5178 cells assessed as potentiation of doxorubicin-induced cytotoxicity by measuring combination index at ED50 in presence of 10.2:1 ratio of doxorubicin to test compound after 48 hrs by MTT assay; format: cell-based
[16] = biological target: T1, ATP-dependent translocase ABCB1; assay: Inhibition of human ABCB1 expressed in mouse L5178 cells assessed as potentiation of doxorubicin-induced cytotoxicity by measuring combination index at ED75 in presence of 20.4:1 ratio of doxorubicin to test compound after 48 hrs by MTT assay; format: cell-based
[17] = Potentiation of doxorubicin-induced cytotoxicity in mouse L5178 cells assessed as combination index at ED75 in presence of 81.5:1 ratio of doxorubicin to test compound after 48 hrs by MTT assay; format: functional
[18] = biological target: T1, ATP-dependent translocase ABCB1; assay: Inhibition of human ABCB1 expressed in mouse L5178 cells assessed as potentiation of doxorubicin-induced cytotoxicity by measuring combination index at ED75 in presence of 10.2:1 ratio of doxorubicin to test compound after 48 hrs by MTT assay; format: cell-based
[19] = biological target: T1, ATP-dependent translocase ABCB1; assay: Inhibition of human ABCB1 expressed in mouse L5178 cells assessed as potentiation of doxorubicin-induced cytotoxicity by measuring combination index at ED50 in presence of 81.5:1 ratio of doxorubicin to test compound after 48 hrs by MTT assay; format: cell-based
[20] = biological target: T1, ATP-dependent translocase ABCB1; assay: Inhibition of human ABCB1 expressed in mouse L5178 cells assessed as potentiation of doxorubicin-induced cytotoxicity by measuring combination index at ED90 in presence of 81.5:1 ratio of doxorubicin to test compound after 48 hrs by MTT assay; format: cell-based
[21] = biological target: T1, ATP-dependent translocase ABCB1; assay: Inhibition of human ABCB1 expressed in mouse L5178 cells assessed as potentiation of doxorubicin-induced cytotoxicity by measuring combination index at ED75 in presence of 81.5:1 ratio of doxorubicin to test compound after 48 hrs by MTT assay; format: cell-based
[22] = biological target: T1, ATP-dependent translocase ABCB1; assay: Inhibition of human ABCB1 expressed in mouse L5178 cells assessed as potentiation of doxorubicin-induced cytotoxicity by measuring combination index at ED90 in presence of 10.2:1 ratio of doxorubicin to test compound after 48 hrs by MTT assay; format: cell-based
[23] = Potentiation of doxorubicin-induced cytotoxicity in mouse L5178 cells assessed as combination index at ED75 in presence of 163:1 ratio of doxorubicin to test compound after 48 hrs by MTT assay; format: functional
[24] = Selectivity ratio of IC50 for human MCF7 cells to IC50 for human T47D cells; format: functional
[25] = tested on: T47D; assay: Antiproliferative activity against human T47D cells after 72 hrs by MTT assay; format: functional, cell-based
[26] = Potentiation of doxorubicin-induced cytotoxicity in mouse L5178 cells assessed as combination index at ED90 in presence of 81.5:1 ratio of doxorubicin to test compound after 48 hrs by MTT assay; format: functional
[27] = Potentiation of doxorubicin-induced cytotoxicity in mouse L5178 cells assessed as combination index at ED50 in presence of 163:1 ratio of doxorubicin to test compound after 48 hrs by MTT assay; format: functional
[28] = Potentiation of doxorubicin-induced cytotoxicity in mouse L5178 cells assessed as combination index at ED90 in presence of 163:1 ratio of doxorubicin to test compound after 48 hrs by MTT assay; format: functional

T1 sequence (P08183 whole entry): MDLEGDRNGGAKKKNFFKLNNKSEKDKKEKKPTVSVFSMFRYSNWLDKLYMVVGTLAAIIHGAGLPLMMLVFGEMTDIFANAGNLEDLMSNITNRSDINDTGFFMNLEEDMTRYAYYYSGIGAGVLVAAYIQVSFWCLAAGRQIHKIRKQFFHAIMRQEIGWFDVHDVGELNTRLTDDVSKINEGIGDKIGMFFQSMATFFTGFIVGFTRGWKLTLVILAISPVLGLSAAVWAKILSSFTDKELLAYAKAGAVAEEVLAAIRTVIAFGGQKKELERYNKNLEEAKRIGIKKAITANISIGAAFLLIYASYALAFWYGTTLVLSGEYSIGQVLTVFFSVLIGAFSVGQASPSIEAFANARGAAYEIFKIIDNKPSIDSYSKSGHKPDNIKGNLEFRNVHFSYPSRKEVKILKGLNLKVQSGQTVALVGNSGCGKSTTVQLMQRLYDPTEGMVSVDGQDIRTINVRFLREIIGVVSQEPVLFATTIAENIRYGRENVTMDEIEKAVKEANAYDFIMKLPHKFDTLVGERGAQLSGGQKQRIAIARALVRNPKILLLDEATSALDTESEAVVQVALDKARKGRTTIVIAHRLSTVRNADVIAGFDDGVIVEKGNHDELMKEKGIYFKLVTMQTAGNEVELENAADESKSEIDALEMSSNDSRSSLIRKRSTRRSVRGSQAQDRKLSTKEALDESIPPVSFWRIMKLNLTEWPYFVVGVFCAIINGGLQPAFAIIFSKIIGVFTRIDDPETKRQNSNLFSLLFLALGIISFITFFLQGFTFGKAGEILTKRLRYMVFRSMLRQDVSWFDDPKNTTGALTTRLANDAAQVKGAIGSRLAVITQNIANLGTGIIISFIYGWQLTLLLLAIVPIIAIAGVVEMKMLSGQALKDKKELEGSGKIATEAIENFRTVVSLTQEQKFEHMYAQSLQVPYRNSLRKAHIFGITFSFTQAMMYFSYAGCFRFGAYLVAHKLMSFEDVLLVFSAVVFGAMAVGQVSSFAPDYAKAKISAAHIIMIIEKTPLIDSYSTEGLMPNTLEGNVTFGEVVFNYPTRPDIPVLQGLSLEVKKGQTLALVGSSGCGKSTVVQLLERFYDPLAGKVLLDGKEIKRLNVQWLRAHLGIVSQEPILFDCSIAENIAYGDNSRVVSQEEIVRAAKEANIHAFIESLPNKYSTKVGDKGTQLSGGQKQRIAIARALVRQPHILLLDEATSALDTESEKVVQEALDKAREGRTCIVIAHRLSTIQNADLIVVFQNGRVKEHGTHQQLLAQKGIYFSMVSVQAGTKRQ

IC50 [2] | Ratio [5] | Ratio [6] | IC50 [10] | IC50 [11] | IC50 [13] | SMILES | IC50 [1] | IC50 [3] | CI [4] | CI [7] | CI [8] | CI [9] | CI [12] | CI [14] | CI [15] | CI [16] | CI [17] | CI [18] | CI [19] | CI [20] | further results
0.14 µM |  |  |  |  |  | COc1cccc2c1C(=O)c1c(O)c3c(c(O)c1C2=O)C[C@@](O)(C(=O)CO)C[C@@H]3O[C@H]1C[C@H](N)[C@H](O)[C@H](C)O1 [DOXORUBICIN] | 3.54 µM | 0.23 µM |  |  |  |  |  |  |  |  |  |  |  |  | 
126 µM | 11.02 | 89.78 | 128 µM | 53.8 µM | 98.4 µM | CC(C)(F)CC[C@@H]1OC(C)(C)O[C@]1(C)[C@H]1CC[C@@]2(F)C3=CC(=O)[C@@H]4C[C@H]5OC(C)(C)O[C@H]5C[C@]4(C)[C@H]3CC[C@]12C | 82.3 µM | 88.6 µM | 0.72 | 0.07 | 0.21 | 0.59 | 0.7 | 0.52 | 0.23 | 0.12 | 0.42 | 0.11 | 0.24 | 0.11 | CI [21]: 0.16; CI [22]: 0.06; CI [23]: 0.44; Ratio IC50 [24]: 3; IC50 [25]: 49.2 µM; CI [26]: 0.27; CI [27]: 0.6; CI [28]: 0.34
127 µM | 3.33 | 11.28 | 75.1 µM | 69.2 µM | 106 µM | CC(C)(O)CC[C@@H]1OC(C)(C)O[C@]1(C)[C@H]1CC[C@@]2(O)C3=CC(=O)[C@@H]4C[C@H]5OC(C)(C)O[C@H]5C[C@]4(C)[C@H]3CC[C@]12C | 106 µM | 82.9 µM | 0.61 | 0.07 | 0.27 | 0.55 | 0.74 | 0.51 | 0.31 | 0.14 | 0.71 | 0.18 | 0.39 | 0.12 | CI [21]: 0.22; CI [22]: 0.11; CI [23]: 0.55; IC50 [25]: 84.7 µM; CI [26]: 0.68; CI [27]: 0.67; CI [28]: 0.46
70.7 µM | 1.59 | 38.62 | 63.1 µM | 30.9 µM | 48.9 µM | CC(C)(F)CC[C@@H]1OC(C)(C)O[C@]1(C)[C@H]1CC[C@@]2(O)C3=CC(=O)[C@@H]4C[C@H]5OC(C)(C)O[C@H]5C[C@]4(C)[C@H]3CC[C@]12C | 50.1 µM | 48.3 µM | 1.04 | 0.19 | 0.19 | 0.96 | 0.8 | 0.91 | 0.19 | 0.19 | 0.66 | 0.17 | 0.35 | 0.33 | CI [21]: 0.33; CI [22]: 0.16; CI [23]: 0.76; IC50 [25]: 70.3 µM; CI [26]: 0.56; CI [27]: 0.85; CI [28]: 0.71
18.8 µM | 31.15 | 109.37 | 43.8 µM | 11.8 µM | 50.2 µM | CC(C)(F)CC[C@@H]1OC(C)(C)O[C@]1(C)[C@H]1CC=C2C3=CC(=O)[C@@H]4C[C@H]5OC(C)(C)O[C@H]5C[C@]4(C)[C@H]3CC[C@@]21C | 17.4 µM | 14.1 µM | 0.79 | 0.28 | 0.48 | 0.84 | 0.73 | 0.9 | 0.56 | 0.36 | 0.8 | 0.34 | 0.78 | 0.69 | CI [21]: 0.73; CI [22]: 0.22; CI [23]: 0.87; Ratio IC50 [24]: 3; IC50 [25]: 17.4 µM; CI [26]: 0.89; CI [27]: 0.8; CI [28]: 0.95
20.8 µM | 1.28 | 57.36 | 30.1 µM | 13.8 µM | 38.5 µM | CC(C)(O)CC[C@@H]1OC(C)(C)O[C@]1(C)[C@H]1CC=C2C3=CC(=O)[C@@H]4C[C@H]5OC(C)(C)O[C@H]5C[C@]4(C)[C@H]3CC[C@@]21C | 19.3 µM | 14.6 µM | 0.9 | 0.37 | 0.54 | 0.81 | 0.99 | 0.73 | 0.55 | 0.44 | 0.89 | 0.45 | 1.09 | 0.69 | CI [21]: 0.87; CI [22]: 0.39; CI [23]: 0.89; Ratio IC50 [24]: 3; IC50 [25]: 10.9 µM; CI [26]: 0.82; CI [27]: 0.93; CI [28]: 0.86
